The values that follow come from BindingDB's records for doi:10.1021/jm0205043 (University of California, 2003).

The test deals with Cyclin-dependent kinase 2 (Homo sapiens, UniProt P24941). Put plainly: Inhibition of Cyclin-dependent kinase 2 (CDK2).

The structures appear in SMILES notation.

For orientation: IC50 means the concentration needed to halve the response being measured. A lower IC50 goes with greater potency in that assay. Consider `CN1CCC(c2c(O)cc(O)c3c(O)c(Cc4ccc([N+](=O)[O-])cc4)oc23)CC1` [4,6-Dihydroxy-7-(1-methyl-piperidin-4-yl)-2-(4-nitro-benzylidene)-benzofuran-3-one], for which it took 310 nM to reach half-maximal inhibition (IC50).
